From patent publication US20060234329A1, “Method for determining the antiradical defense potential and use thereof, in particular in veterinary and human preventive therapeutics” (priority 2003, published 2006)

Tests used:
[1] = test system: whole blood, erythrocytes or blood plasma; test: method of the invention: hydrolysis, then lysis by free radicals; format: cell-based; details: with hydrolysis according to the invention
Experimental: (§1) Sulfated ferulic acid (I) consequently comprises a double antiradical reserve which is usable by hydrolysis. The antiradical activity of these products was determined according to the prior KRL test without hydrolysis, on the one hand, and according to the invention after hydrolysis, on the other hand. The results obtained are set out in Table I which illustrates the value of hydrolysis according to the invention. [drawing 5]
The method of the invention has been standardised for use with whole blood, erythrocytes or blood plasma as the second cellular material. […] The T½ value and the other parameters stated above are then determined. […]
The sample to be tested (50 μl), which contains or is associated with whole blood, with erythrocytes or, respectively, with plasma and if necessary is diluted, is introduced into the dilution solution (220 μl) placed in the wells of a microplate. Hydrolysis is performed, the free radical generator is introduced, release of the free radicals is initiated and the T½ value and said other parameters are determined according to the methods stated above.
In practice, it is recommended to use the following quantities of enzymes, where U denotes the international unit of the enzyme in question: • β-glucosidase at a final concentration of 11.11 U/ml (3 U/well), • sulfatase at a final concentration of 3 U/ml (0.8 U/well), and/or • β-glucuronidase at a final concentration of 2222.22 U/ml (600 U/well). Other advantages and characteristics of the invention will be better understood on reading the Examples and tests stated hereafter. […]

[2] = test system: control whole blood; test: prior KRL test without hydrolysis: lysis by free radicals; format: cell-based
Experimental: This known method has been standardised using whole human or animal blood, which is diluted, instead of the above-stated erythrocytes isolated from whole blood. The standardised method has been successfully marketed under the name “KRL Test” (kit radicaux libres [=free radical kit]) in particular for determining (i) the antiradical defence capacity of a human, animal or plant cellular tissue, or (ii) the possible antiradical properties of a physical, chemical or biological agent. More specifically, the KRL test is performed by 1) bringing (a) previously diluted control whole blood into contact in an appropriate buffer medium with (b) an agent to be tested (in particular a cellular material, a substance or a composition) and (c) a free radical generator, 2) inducing release of the free radicals, 3) monitoring the lysis kinetics of the erythrocytes from the control whole blood by measuring the absorbance of the reaction medium, then 4) comparing said latter value with that of control whole blood determined under the same conditions without the agent to be tested.
as §1

Row | Structure (SMILES) | Antiradical activity relative to ferulic acid, with hydrolysis [1] | Antiradical activity relative to ferulic acid, without hydrolysis [2]
1 | COc1cc(/C=C/C(=O)O)ccc1O [trans-ferulic acid (II), trans-ferulic acid] | 2.05 | 1.00
2 | COc1cc(/C=C/C(=O)O)ccc1OS(=O)(=O)O [sulfated ferulic acid (I), sulfated ferulic acid] | 2.06 | 0.01
3 | O=C(O)/C=C/c1ccc(O)c(O)c1 [trans-caffeic acid (III), trans-caffeic acid] | 2.06 | 2.06
